Measurements taken from PMC3259267 (Bioorganic & medicinal chemistry, 2011).

What was measured:
[1] = tested on: panel of 68 radioligand receptor assays; test: LeadProfilingScreen radioligand binding panel; conditions: 10 uM; none positive, mostly <10%
[2] = Plasma concentration and blood brain barrier penetration; conditions: G93A SOD1 transgenic mice, single ip 50 mg/kg
[3] = Caco-2 monolayer permeability; conditions: human
ALS = ALS patients, on average; ref [1]; cited from earlier work

## O=C1CC(=O)CC(c2cc(C(F)(F)F)cc(C(F)(F)F)c2)C1 [Compound 26]
[1]
  inhibition in all 68 radioligand receptor assays: < 20%
[2]
  period of stable plasma concentrations: 3 to 12 h

## CC(Oc1cc(C(F)(F)F)cc(C(F)(F)F)c1)C1CC(=O)CC(=O)C1 (stereo not shown) [Compound 73]
[3]
  Papp A→B at 2 h, 50 μM: 24.8 ×10⁻⁶ cm/s

## Nc1nc2ccc(OC(F)(F)F)cc2s1 [riluzole]
ALS
  extension of life: 2–3 months
